From the NIST ThermoML archive (doi:10.1021/je050378i)
Numbers after ± are expanded uncertainties.

Test: wn = mass fraction of the nth substance listed
Conditions: 101.33 kPa, Liquid

CC(C)(N)CO [2-amino-2-methylpropan-1-ol] + O
w1 = 0.3
Conditions	mass density [kg/m3]	viscosity [mPa·s]
298 K	997 ± 1.3	3.637 ± 0.11
303 K	994.2 ± 1.4	2.964 ± 0.091
308 K	991.4 ± 1.4	2.446 ± 0.075
313 K	988.4 ± 1.4	2.043 ± 0.063
318 K	985.4 ± 1.5	1.696 ± 0.053
323 K	982.1 ± 1.5	1.425 ± 0.044
328 K	978.8 ± 1.5	1.237 ± 0.039
333 K	975.5 ± 1.6	1.081 ± 0.034

C1CNCCN1 [piperazine] + O
Conditions	mass density, w1 = 0.0174 [kg/m3]	mass density, w1 = 0.0345 [kg/m3]	mass density, w1 = 0.0516 [kg/m3]	mass density, w1 = 0.0688 [kg/m3]	viscosity, w1 = 0.0174 [mPa·s]	viscosity, w1 = 0.0344 [mPa·s]	viscosity, w1 = 0.0516 [mPa·s]	viscosity, w1 = 0.0688 [mPa·s]
298 K	997.8 ± 1.1	998.5 ± 1.1	999.4 ± 1.1	1000.6 ± 1.1	0.957 ± 0.03	1.021 ± 0.031	1.09 ± 0.033	1.169 ± 0.036
303 K	996.5 ± 1.2	997.2 ± 1.2	998.1 ± 1.2	999 ± 1.2	0.861 ± 0.027	0.915 ± 0.028	0.965 ± 0.03	1.035 ± 0.032
308 K	995.1 ± 1.2	995.7 ± 1.2	996.5 ± 1.2	997.6 ± 1.2	0.776 ± 0.024	0.805 ± 0.025	0.865 ± 0.027	0.91 ± 0.028
313 K	993.2 ± 1.2	994.1 ± 1.2	994.7 ± 1.3	995.6 ± 1.2	0.681 ± 0.022	0.718 ± 0.023	0.763 ± 0.024	0.821 ± 0.026
318 K	991.4 ± 1.3	992.2 ± 1.3	992.5 ± 1.3	993.8 ± 1.3	0.623 ± 0.02	0.652 ± 0.021	0.703 ± 0.022	0.731 ± 0.023
323 K	989.3 ± 1.3	990.2 ± 1.3	990.4 ± 1.3	991.4 ± 1.3	0.573 ± 0.018	0.592 ± 0.019	0.624 ± 0.02	0.663 ± 0.021
328 K	986.7 ± 1.4	987.4 ± 1.4	988 ± 1.4	989.1 ± 1.4	0.543 ± 0.018	0.543 ± 0.018	0.569 ± 0.018	0.604 ± 0.019
333 K	984.2 ± 1.4	984.5 ± 1.4	985.7 ± 1.4	987.4 ± 1.4	0.488 ± 0.016	0.505 ± 0.017	0.523 ± 0.017	0.546 ± 0.018
